The record followed here is US20250179024A1, “AMYLOID AND ASSOCIATED PATHOLOGY MODULATORS AND METHODS THEREOF” (Jawaharlal Nehru Centre for Advanced Scientific Research, priority 2022, published 2025).

Common to all, as to format: cell-based
Assay [1] concerns SH-SY5Y cells. Put plainly: Imaging of mitochondrial structural changes, Mito-TG. As to conditions: Aβ 20 μM, 18 h, Mito-TG staining. Here is the method:
The effect of NMIs (M3) on Aβ induced structural damage to mitochondria was assessed and Mito-TG probe was used for imaging mitochondria. SH-SY5Y cells were seeded onto confocal dishes and incubated for 24 h. Then cells were treated with Aβ (20 μM) alone and with M3 (50 μM) and incubated for […]. Followed by PBS washing, and stained with Mito-TG (250 nM) for 20 min. Cells were washed thrice with dPBS and imaged in live cell set up in rhodamine channel using 63× oil immersion using Leica DMi8 fluorescence microscope.
Aβ-associated functional abnormalities induced structural defects in mitochondria. The effect of M3 to prevent structural damage was assessed by staining the cells with Mito-TG, a mitochondrial probe. The cells were treated with Aβ (20 μM) alone and with M3 for 18 h, followed by Mito-TG staining and fluorescence microscopic imaging to visualize the structural changes. The Aβ treatment deformed mitochondria with fragmented morphology in comparison to the long tubular structure of healthy cells (FIG. 14C). […] Collectively, these structural and functional studies of mitochondria confirmed that M3 is a potential modulator of Aβ-induced toxicity to protect mitochondrial damage.

Assay [2] concerns SH-SY5Y cells. The experiment in a line: Apoptosis assay by nuclear staining and morphology. As to conditions: Aβ 10 μM, compound 20 µM, 24 h. The procedure:
The apoptosis induced by Aβ and rescue by NMIs (M3) was assessed through nuclear staining and morphology analysis. Apoptosis induces DNA damage and morphological change in the nucleus. Based on the nuclear features the extent of apoptosis was assessed as percentage apoptotic cells. SH-SY5Y cells were cultured and treated with Aβ (10 μM) and with NMIs (M3) (20 μM) to quantify the apoptosis and rescue by NMIs (M3). After 24 h the cells were washed with PBS and fixed with 4% paraformaldehyde and then with PBS for 5 min thrice and the nucleus was stained with DAPI (1 μM) for 10 min, washed thrice with PBS and imaged using fluorescence microscope to visualize the nuclear morphology. […] Total of more than 300 cells were counted to calculated the percentage of apoptosis.
Modulation of apoptosis by M3 was quantified by apoptosis assay through nuclear staining and morphological analysis. Apoptotic signals induced nuclear DNA damage show abnormal nuclear features, which has been used to evaluate and quantify the extent of apoptosis. Neuronal cells treated with Aβ (10 μM) alone and with […] for 24 h were stained for the nucleus and analysed for apoptotic morphological features.

A further assay concerns C6 microglial cells. Put plainly: Bio-AFM study of microglial activation. As to conditions: Aβ 5 μM, compound 10 μM. The procedure: Microglia activation and its alleviation was studied by Bio-AFM technique combining the indirect immunofluorescence by confocal microscopy and cellular mechanical properties characterization by AFM. C6 microglia was used as model cells and Aβ as pathological stimuli for the study. C6 cells were cultured in glass bottom confocal dishes to attain 70% confluence. The cells were primed to activation by using 500 ng/mL of LPS in low serum media (2.5% FBS). Then microglial cells were treated with 5 μM Aβ42 alone and with NMIs (M3) for 18 h. Then the cells were fixed and probed for Iba1 marker by indirect immunofluorescence, counter stained with Phalloidin rhodamine (200 nM) for actin labeling to visualize the actin distribution and DAPI (1 μM) for labeling the nucleus. The samples were washed thrice using dPBS and subjected to Bio-AFM imaging.
The Bio-AFM studies were performed in Bioscope Resolve AFM integrated with Olympus Fluoview-3000 Confocal laser scanning microscope (Bruker). The original confocal stage was removed and replaced with the Bruker Bio-AFM stage. For the confocal images aspect ratio was fixed to 4:3 with channel size of 640×480 and 3-point calibration was done to obtain proper overlay and pixel scaling was optimized by setting 0.375 μ/pixel. Region of interest was selected in the confocal using 60× oil immersion objective (Olympus plan Apo N) and on selected region AFM probe was landed using MIROVIEW window. Peak Force Quantitative Nanomechanical Mapping (PF-QNM) in Fluid mode was used for imaging the cells wherein this mode works based on Peakforce tapping principle. From this mode, height, log DMT and adhesion force of the samples was recorded. The log DMT was calculated using Derjaguin, Muller, Toropov (DMT) model using the formula given below. Studies were performed using MLCT BIO-F probe made up of non-conductive silicon nitride, coated with reflective Au with spring constant of 0.60 N/m and tip radius of 20 nm. Images were recorded with scanning speed of 0.5 Hz with 512 samples per line. The confocal images were recorded in DAPI, Alex488 and rhodamine channels. AFM data was analyzed using NanoScope analysis software (1.9 version) and confocal images were analyzed using Image J. Ftip=4/3E*√Rd3+Fadh, where Ftip=Force on tip, Fadh=Adhesion force, R=Tip radius and d=Tip sample separation.
C6 microglial cells were used as model and Aβ as stimuli for microglial activation that mimics AD conditions. The C6 cells were primed with LPS (500 ng/mL) for 4 h followed by treatment with Aβ (5 μM) alone and with M3 (10 μM) for 18 h. The cells were stained for Iba1, actin (phalloidin-rhodamine) and nucleus (DAPI), and the samples were subjected to confocal and AFM imaging using integrated Bio-AFM instrument.

On to `O=C1c2cccc3c(N(Cc4ccccn4)Cc4ccccn4)ccc(c23)C(=O)N1CCc1ccc(O)c(O)c1` [M3, 6-(bis(pyridin-2-ylmethyl)amino)-2-(3,4-dihydroxyphenethyl)-1H-benzo[de]isoquinoline-1,3(2H)-dione], for which the mitochondrial structure result with SH-SY5Y cells [1] is on record as “protected normal long tubular structures”. In the assay on SH-SY5Y cells [2] (DAPI), the nuclear morphology result is listed as “normal nuclear structures”. For the same molecule, the “apoptosis of neuronal cells” value in the assay on SH-SY5Y cells [2] (Aβ alone ~35%, control ~8.5%) worked out at 22.5%. The “log DMT modulus (cellular stiffness)” value in the assay with C6 microglial cells (Aβ treated ~2.06±0.20 Pa, control ~1.38±0.19 Pa) is listed as approximately 1.32±0.15. Further, in the assay with C6 microglial cells (activated ~5.13±0.29, control ~2.03±0.18), the height of microglial cells is approximately 3.03 µm. The adhesive force in the assay with C6 microglial cells (activated ~5.30±0.24, control 3.21±0.23) is reported as approximately 3.57±0.25 nN. In addition, in the assay with C6 microglial cells (LPS 500 ng/mL, 18 h), the “Iba1 level compared to Aβ treated cells” value is “reduced significantly”, the “Iba1 localisation with actin” value was “reduced the Iba1 localisation with actin” and the “actin redistribution to the periphery of Aβ treated microglial cells” value is “reduced”.
